Calls of active or inactive are those of the source. No cut-off is given here; in the data, nearly all actives have IC50 up to about 10 µM.
Target: yeast expressing human caspase-1/ASC, counter-screen read-out
Assay: CASP1-PYCARD signal inhibition in yeast, concentration-response, counterassay for NLRP3 inhibitor project (AID 488800)

| SMILES | IC50 |
| --- | --- |
| CCOC(=O)N1C(=O)C2(CCCCC2)N(c2ccccc2Cl)C1=S | 10.6 µM |
| CCCOc1ccc(C(=O)NNC(=S)NC(=O)c2cccs2)cc1 | 2.93 µM |
| CN(CC(=O)N1CCc2ccccc2C1)c1ccccc1 | 2.22 µM |
| CCN(CC)c1ccc2nc3ccccc3[n+](CC)c2c1 | 6.23 µM |
| CCCC1CCC(c2ccc(OCC)cc2)=CC1=O (stereo not drawn) | 4.85 µM |
| Cc1ccc(NC(=O)c2nc(S(=O)(=O)Cc3ccccc3)ncc2Cl)cc1 | 1.67 µM |
| Cc1cccc(C(=O)O/N=C(\N)Cc2cccc3ccccc23)c1 | 1.72 µM |
| Cc1csc2nc(O)c(C(=O)NCCC3=CCCCC3)c(=O)n12 | 2.33 µM |
| O=C(CCS(=O)(=O)c1ccccc1)N(CCCN1CCOCC1)c1nc2c(F)cccc2s1 | 1.05 µM |
| CCSc1nsc(NC(=O)Nc2cccc(F)c2)n1 | 1.22 µM |
| c1ccc(Sc2cccc3ccccc23)c(CNC2=NCCN2)c1 | 7.62 µM |
| Nc1ccc(Oc2cc(N)cc(Oc3ccccc3)c2)cc1 | 4.58 µM |
| O=C(Nc1cccc(Cl)c1)c1cc(N=Nc2ccc([N+](=O)[O-])cc2Cl)ccc1O | 0.566 µM |
| CC(=O)N(/N=C1\Sc2ccccc2C1=O)c1ccccc1C | 4.55 µM |
| O=C(Nc1ccc(Cl)cc1)Nc1ccc(Cl)c(Cl)c1 | 0.805 µM |
| CC(N)C(=O)OC(C)(C)Cc1ccc(Cl)cc1 (stereo not drawn) | 4.3 µM |
| COc1cccc(NC(=O)c2ccccc2)c1 | 4.54 µM |
| O=c1c2cc(Br)ccc2nc(-c2ccc([N+](=O)[O-])cc2)n1O | 2.39 µM |
| CN(CCOc1ccccc1)c1ccc(S(=O)(=O)N2CCCCC2)cn1 | 5.1 µM |
| O=C(NCCC1=CCCCC1)c1c(O)nc2sccn2c1=O | 2.24 µM |
| Cc1onc(-c2ccccc2Cl)c1C(=O)N1C=CC(C(F)(F)F)=NCC1 | 6.51 µM |
| CCN(CC)c1ccc2nc3ccc(N)cc3[n+](-c3ccccc3)c2c1 | 1.08 µM |
| O=C(NC(=S)NNC(=O)c1ccccc1O)c1ccc(F)cc1 | 1.82 µM |
| CCCCCCCCn1c2c(c(=N)c3ccccc31)CCC2 | 8.75 µM |
| O=C(NNC(=S)NC(=O)c1ccc(Br)cc1)c1ccc([N+](=O)[O-])cc1 | > 100 µM (inactive) |
| Cn1c(=O)c(C(=O)Nc2ncccn2)c(O)c2ccccc21 | 3.18 µM |
| C[C@@H]1C[C@@H]2O[C@H]2/C=C\C=C\C(=O)Cc2c(Cl)c(O)cc(O)c2C(=O)O1 | 5.66 µM |

| SMILES | IC50 |
| --- | --- |
| Oc1c(/C=N/c2ccccn2)sc2ccccc12 | 3.8 µM |
| CCCCCNC(=O)C(=O)C1C(=O)Nc2ccccc21 (stereo not drawn) | 1.78 µM |
| C=CCc1c(C)nc(C)nc1N/N=C/c1ccccc1O | 9.37 µM |
| COc1ccc(CNC(=O)c2c(C)oc3c2C(=O)c2ccccc2C3=O)cc1 | 3.11 µM |
| CCOC(=O)c1ccc2c(c1)nc(COc1ccc(OC)cc1)n2CC | 9.83 µM |
| O=C(Nc1scc(-c2ccccc2)c1C(=O)O)c1ccc(F)cc1 | 4.03 µM |
| CC(=O)Oc1c(I)cc(I)cc1C(=O)Nc1ccc(Cl)cc1 | 0.813 µM |
| N#Cc1ccc(NC(=O)Nc2ccc(Cl)cc2)cc1 | 2.98 µM |
| O=c1c2ccc(Cl)cc2nc(-c2cccc(C(F)(F)F)c2)n1O | 2.67 µM |
| CC(C)NC(=O)c1c(O)c2ccccc2[nH]c1=O | 1.19 µM |
| COc1ccc(NC(=O)C#Cc2ccccc2)cc1 | 1.44 µM |
| COc1cc(CNCCc2ccccc2)ccc1OCc1ccc(Cl)nc1 | 4.86 µM |
| O=C(Nc1cccc(Cl)c1)c1cnn2cccnc12 | 4.35 µM |
| CCN1/C(=C/C=C/c2oc3ccc(-c4ccccc4)cc3[n+]2CC)Oc2ccc(-c3ccccc3)cc21 | 8.93 µM |
| O=c1c2cc(Cl)ccc2nc(-c2ccc([N+](=O)[O-])cc2)n1O | 2.7 µM |
| CCCCCC(=O)N1CCN(CCN=CC2=C(O)CC(c3ccco3)CC2=O)CC1 (stereo not drawn) | 8.62 µM |
| CCC1Nc2ncnc(N3CCN(c4ccccn4)CC3)c2N(Cc2ccc(Cl)cc2)C1=O (stereo not drawn) | 3.32 µM |
| CCC1Nc2ncnc(N3CCN(c4ccccn4)CC3)c2N(Cc2ccc(Br)cc2)C1=O (stereo not drawn) | 3.3 µM |
| O=C(NCCCc1ccccc1)c1c(O)nc2sccn2c1=O | 2.42 µM |
| Brc1ccc(-n2cnc(-c3ccccc3)c2)cc1 | 10.1 µM |
| O=c1cc(-c2ccccc2Cl)oc2ccc([N+](=O)[O-])c(O)c12 | 1.89 µM |
| COc1c(OC(C)=O)c(=O)n2c3ccccc3c3ccnc1c32 | 0.665 µM |
| Cn1c(=O)c(C(=O)NNC(=O)c2ccccc2F)c(O)c2ccccc21 | 1.56 µM |
| O=C(Nc1cccc(Br)c1)c1cc2ccccc2o1 | 3.37 µM |
| c1ccc(C2Nc3ccccc3C3OCCCC23)cc1 (stereo not drawn) | 0.881 µM |
| CCCCCCCCCn1c2c(c(=N)c3c1CCC3)CCC2 | 6.26 µM |

— PubChem BioAssay AID488800 (Sanford-Burnham Center for Chemical Genomics, 2010)
